Some test systems named below: KM20L2 colon; DLD-1 colon; LXFL 529 NSCLC; MDA-N; SNB-78 CNS; DMS 273 small cell lung; RXF-631 renal; M19-MEL melanoma; XF 498 CNS; P388 leukemia; P388/ADR leukemia.
Test in all cases: NCI tumour cell line growth inhibition, 48 h

“And” between values parts separate entries of the source, which are not always exact repeats. Identical values can stand only once.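 1) Cells in 96-well plates. 2) Compound, 48 h, 5 concentrations. 3) Linear interpolation between surrounding doses. 4) Unreached endpoint = highest concentration. Here, GI50 denotes the concentration required for 50% inhibition of growth. TGI marks complete inhibition of growth.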

As to `CC(=O)Nc1ccc(/C=C2\N=C(c3ccccc3)OC2=O)cc1`, the TGI with KM20L2 colon, with DLD-1 colon and in the assay on LXFL 529 NSCLC was more than 100 µM throughout.

Regarding `COc1cccc(/C=C/c2ccnc3ccccc23)c1OC`, the TGI with MDA-N is more than 10 µM.

Regarding `COc1ccc2c(c1)[n+](=O)c(C(=O)C/C(=N/NC(=O)C[N+](C)(C)C)C(=O)Nc1cccc(C)c1C)c(C)n2O`, the TGI with KM20L2 colon, in the assay with DLD-1 colon, with SNB-78 CNS, with DMS 273 small cell lung, in the assay on RXF-631 renal and in the assay on M19-MEL melanoma was more than 100 µM throughout. The same compound returned a TGI with LXFL 529 NSCLC of more than 100 µM.

As to `CN(C)C(=O)NC(=S)N(C)C`, the TGI in the assay with KM20L2 colon, with DLD-1 colon, in the assay on SNB-78 CNS, in the assay with DMS 273 small cell lung, in the assay with XF 498 CNS and in the assay on M19-MEL melanoma was more than 100 µM each time. Also, in the assay on LXFL 529 NSCLC, the TGI was more than 100 µM.

In the assay on MDA-N, `CCN(CC)c1ccc(C2NC(=O)c3ccccc3N2)cc1` (stereo not given) came in with a TGI of 2.55 µM.

For `COC(=O)C1C(=O)O[C@@H](c2ccc(OC)c(OC)c2OC)C1C(=O)OC` (mixture of isomers), the TGI in the assay with KM20L2 colon, in the assay on DLD-1 colon, in the assay with SNB-78 CNS, in the assay on DMS 273 small cell lung, in the assay with RXF-631 renal and in the assay with XF 498 CNS was more than 100 µM throughout. The TGI with M19-MEL melanoma and in the assay with LXFL 529 NSCLC was more than 100 µM in each case.

With `O=C(N/C(=C\c1ccccc1Cl)c1nc2ccccc2[nH]1)c1ccccc1`, the TGI is more than 100 µM in the assay with KM20L2 colon; more than 100 µM with DLD-1 colon; more than 100 µM in the assay with SNB-78 CNS; more than 100 µM with RXF-631 renal; 57.5 µM with XF 498 CNS; more than 100 µM in the assay with M19-MEL melanoma. The TGI in the assay with LXFL 529 NSCLC was more than 100 µM.

On to `CC(=O)[CH-]C(=O)c1ccccc1.CC(=O)[CH-]C(=O)c1ccccc1.CC(C)CCC[C@H](C)C1CCC2[C@@H]3CC=C4C[C@@H]([O-])CC[C@]4(C)C3CC[C@@]21C.CC(C)CCC[C@H](C)C1CCC2[C@@H]3CC=C4C[C@@H]([O-])CC[C@]4(C)C3CC[C@@]21C.Cl.[Ti+4]` (stereo not given in full), for which the GI50 in the assay with KM20L2 colon, with DLD-1 colon, in the assay on DMS 273 small cell lung and with LXFL 529 NSCLC was more than 25 µM in each case. Further, the TGI in the assay with KM20L2 colon, in the assay on DLD-1 colon, with DMS 273 small cell lung and with LXFL 529 NSCLC was more than 25 µM throughout.

For the compound `Cc1cc(=O)n(-c2c(C)cccc2Cl)c(/C=C(\O)c2ccncc2)n1`, the TGI in the assay on KM20L2 colon, with DLD-1 colon, with SNB-78 CNS, with DMS 273 small cell lung, with RXF-631 renal and in the assay with LXFL 529 NSCLC was more than 100 µM each time.

`O=CNc1ccc(S(=O)(=O)c2ccc(NC=O)cc2)cc1` registered a TGI in the assay on MDA-N of more than 100 µM.

`CC(=O)OCC1OC(OCc2ccccc2)C(Br)C(OC(C)=O)C1OC(C)=O` (stereo not given): the TGI with KM20L2 colon, with DLD-1 colon, in the assay on SNB-78 CNS, in the assay with DMS 273 small cell lung, with RXF-631 renal and in the assay with XF 498 CNS was more than 100 µM throughout. The TGI with M19-MEL melanoma and in the assay with LXFL 529 NSCLC was more than 100 µM in each case.

Consider `O=C(COc1ccc(OCC(=O)N2C(=O)CN(c3ccccc3)C2=S)cc1)N1C(=O)CN(c2ccccc2)C1=S`, for which, in the assay on MDA-N, the GI50 is more than 25 µM and the TGI was more than 100 µM.

`COc1ccc2nc3cc([N+](=O)[O-])ccc3c(NNc3ccccc3)c2c1` gave a TGI in the assay on MDA-N of more than 100 µM.

For `CC1CCC(=O)C(C(O)CC2CC(=O)N(c3ccccc3)C(=O)C2)C1` (stereo not given), the TGI with KM20L2 colon, in the assay with DLD-1 colon, with SNB-78 CNS, with DMS 273 small cell lung, with M19-MEL melanoma and with LXFL 529 NSCLC was more than 100 µM in each case.

On to `CCN(CC)CC(=O)NC1c2ccccc2Oc2c(C)cccc21` (stereo not given), for which the TGI with KM20L2 colon, in the assay on DLD-1 colon, in the assay on SNB-78 CNS, in the assay with DMS 273 small cell lung, in the assay on XF 498 CNS and in the assay with M19-MEL melanoma was more than 100 µM throughout. Also, the TGI in the assay on LXFL 529 NSCLC was more than 100 µM.

In the case of `CN(C)CCn1cnc2ncccc2c1=O`, the TGI in the assay with KM20L2 colon, in the assay with DLD-1 colon, in the assay on SNB-78 CNS, in the assay with DMS 273 small cell lung, in the assay on XF 498 CNS and with M19-MEL melanoma was more than 100 µM each time. The TGI in the assay on LXFL 529 NSCLC was more than 100 µM.

In the assay on MDA-N, `O=c1ccc(=O)n(-c2ccccc2)[nH]1` yielded a TGI of more than 100 µM.

In turn, `CN(C)Cc1ccc(C(C)(C)C)cc1-c1cc(C(C)(C)C)ccc1CN(C)C` displayed a TGI in the assay on MDA-N of more than 100 µM.

`O=C(O)c1c(Cl)c(Cl)c(Cl)c(Cl)c1C(=O)Nc1ccc2cn[nH]c2c1` yielded a TGI in the assay with MDA-N of more than 100 µM.

Take `CC1=C(C(=O)NCc2ccccc2)C(c2ccccc2C)C(C(=O)NCc2ccccc2)=C(C)N1`: the TGI in the assay on KM20L2 colon was more than 75.5 µM; in the assay with DLD-1 colon, 51.3 µM; in the assay with SNB-78 CNS, more than 100 µM; with DMS 273 small cell lung it was more than 69.9 µM; in the assay with RXF-631 renal, more than 100 µM; in the assay on M19-MEL melanoma, more than 75.8 µM. Further, in the assay on LXFL 529 NSCLC, the TGI is more than 95.9 µM.

For the compound `O=C(CO[N+](=O)[O-])OC/C=C/c1ccccc1`, the TGI in the assay with KM20L2 colon, in the assay with DLD-1 colon, in the assay with DMS 273 small cell lung, with M19-MEL melanoma and with LXFL 529 NSCLC was more than 100 µM each time.

For `Clc1ccc(OCc2nnc3n2N=C(c2ccc(Br)cc2)CS3)cc1`, the TGI with SNB-78 CNS is 81.1 µM; in the assay on DMS 273 small cell lung it was more than 100 µM; with XF 498 CNS, 21.4 µM; in the assay on M19-MEL melanoma, more than 100 µM; in the assay with LXFL 529 NSCLC it was 70.3 µM.

With `COc1ccc(S(=O)(=O)N[C@H](C(=O)O)c2ccccc2)cc1`, the TGI in the assay on KM20L2 colon, with DLD-1 colon, in the assay with SNB-78 CNS, in the assay on DMS 273 small cell lung, with XF 498 CNS and in the assay on M19-MEL melanoma was more than 100 µM in each case. For the same compound, the TGI with LXFL 529 NSCLC is more than 100 µM.

As for `CCCCCCCCCCCCCCCCc1c(C(=O)OC)nc(NN)[nH]c1=O`, the TGI in the assay with KM20L2 colon, with DLD-1 colon, in the assay on SNB-78 CNS, in the assay with DMS 273 small cell lung, in the assay on RXF-631 renal and in the assay with XF 498 CNS was more than 50 µM throughout. The TGI with M19-MEL melanoma and with LXFL 529 NSCLC was more than 50 µM each time.

For the compound `COc1cccc2nc3ccccc3nc12`, the TGI in the assay on MDA-N is more than 100 µM.

Take `COc1cc(-c2ccc(NC(=O)SCCC(=O)O)cc2OC)ccc1NC(=O)SCCC(=O)O`: the TGI in the assay with KM20L2 colon, in the assay with SNB-78 CNS, in the assay on DMS 273 small cell lung, in the assay on XF 498 CNS, with M19-MEL melanoma and in the assay with LXFL 529 NSCLC was more than 100 µM throughout.

For `COC1[C@H](NC(=O)OC(C)(C)C)C(=O)N1Cc1ccccc1` (stereo not given in full), the TGI in the assay on KM20L2 colon, in the assay on DLD-1 colon, in the assay with SNB-78 CNS, with DMS 273 small cell lung, in the assay on XF 498 CNS and with M19-MEL melanoma was more than 100 µM throughout. Also, in the assay on LXFL 529 NSCLC, the TGI is more than 100 µM.

For the compound `O=C(CCl)Nc1cc(Cl)c(Cl)cc1Cl`, in the assay with MDA-N, the TGI came to 3.19 µM.

As for `CCCCCCCCCCSC(=O)NC`, the TGI with DLD-1 colon was more than 100 µM; in the assay with DMS 273 small cell lung it was more than 100 µM; in the assay on XF 498 CNS it was 54 µM; with M19-MEL melanoma, more than 100 µM; in the assay with LXFL 529 NSCLC, more than 100 µM.

For `CCOc1ccc(OCC)c([P+](c2ccccc2)(c2ccccc2)c2ccccc2)c1`, the TGI was 4.13 µM with KM20L2 colon; 16 µM with DLD-1 colon; more than 100 µM in the assay on SNB-78 CNS; 1.21 µM in the assay on DMS 273 small cell lung; 51.4 µM in the assay with RXF-631 renal; 0.542 µM in the assay on XF 498 CNS. The figures for the TGI in the assay with M19-MEL melanoma and with LXFL 529 NSCLC were 16.3 µM and 10.4 µM, respectively.

In the assay with MDA-N, `O=C(/C=C/C(Cl)(Cl)Cl)Nc1ccc(Cl)cc1` registered a TGI of 13.8 µM.

`C(=Nc1cnc2ccccc2c1)c1ccc2ccccc2n1`: the TGI in the assay with MDA-N is more than 100 µM.

Consider `CCOC(=O)C(NO)C(Sc1ccccc1)c1ccc(OC)cc1` (stereo not given), for which the TGI in the assay on KM20L2 colon, with DLD-1 colon, with SNB-78 CNS, in the assay on DMS 273 small cell lung, in the assay on XF 498 CNS and with M19-MEL melanoma was more than 100 µM each time. In addition, in the assay on LXFL 529 NSCLC, the TGI was more than 100 µM.

Compound `C[C@H](CS)C(=O)N1c2ccccc2C[C@H]1C(=O)O` yielded a TGI in the assay with MDA-N of more than 100 µM.

Consider `CC(=O)OC(C)(C)/C=C/C(=O)[C@](C)(O)[C@H]1[C@H](O)C[C@@]2(C)[C@@H]3CC=C4[C@@H](C=C(O)C(=O)C4(C)C)[C@]3(C)C(=O)C[C@]12C`, for which the GI50 was 0.0895 µM in the assay on P388 leukemia, 0.018 µM in the assay on RXF-631 renal, 0.018 µM in the assay on LXFL 529 NSCLC and 0.175 µM in the assay with P388/ADR leukemia. Also, the TGI with P388 leukemia is 2.32 µM and 14.3 µM; in the assay with DLD-1 colon it was 4.25 µM and 4.43 µM and 2.19 µM; with MDA-N, 1.57 µM; with DMS 273 small cell lung, 0.203 µM and 0.0544 µM and 0.1 µM; in the assay with RXF-631 renal, 0.434 µM and 0.152 µM; in the assay on M19-MEL melanoma it was 4.2 µM and 3.01 µM and 3.43 µM. Also, the TGI in the assay with LXFL 529 NSCLC was 0.305 µM and 0.385 µM; with P388/ADR leukemia, 3.04 µM and 2 µM.

The values above are taken from PubChem BioAssay (NCI).
